Test results reported in ChEMBL document CHEMBL1151372, “Isoiguesterin, a new antileukemic bisnortriterpene from Salacia madagascariensis” (1981).
Values after ≈ are worked out from the molar mass of the structure shown.

Tests used:
Type in all cases: functional
P388 [1] = assay: In vivo antitumor activity against mouse P388 cells at 1 mg/kg relative to control
P388 [2] = assay: In vivo antitumor activity against mouse P388 cells at 0.75 mg/kg relative to control
KB = assay: Cytotoxicity against human KB cells; conditions: read-out: ED50 (the source's name)

C=C1CC[C@]2(C)CC[C@]3(C)C4=CC=C5C(=CC(=O)C(O)=C5C)[C@]4(C)CC[C@@]3(C)[C@@H]2C1 [ISOIGUESTERIN]
T/C (P388 [1]): 147%
T/C (P388 [2]): 125%
EC50 (KB): 0.24 µg/mL (≈ 0.593 µM)
